Like-named read-outs stand apart in the source and are kept apart here.
Assays:
KM mice = assay: animal or person; format: in vivo; conditions: for 2ED50 duration / 2ED50 recovery time / Quality of recovery: KM mice; for 2ED50 duration / 2ED50 recovery time: single tail vein injection at 2×ED50; for 2ED50 duration: time from disappearance to recovery of righting reflex; for 2ED50 recovery time: time from recovery of righting reflex to free crawling; for ED50: KM mice (male, 18-22 g), injection via the tail vein, disappearance of righting reflex; for duration and recovery time compared with remimazolam / effective dose compared with remimazolam: mice, tail vein, in words; for Quality of recovery: tail vein injection
SD rats = assay: animal or person; format: in vivo; conditions: for ED50: SD rats (male, 220-300 g), injection via the tail vein, disappearance of righting reflex; for 2ED50 duration / 2ED50 recovery time / Quality of recovery: SD rats; for 2ED50 duration / 2ED50 recovery time: single tail vein injection at 2×ED50; for 2ED50 duration: time from disappearance to recovery of righting reflex; for 2ED50 recovery time: time from recovery of righting reflex to free crawling; for Quality of recovery: tail vein injection; for duration and recovery time compared with remimazolam / effective dose compared with remimazolam: rats, tail vein, in words
[1] = Rattus norvegicus, read-out: ED50

Compound | 2ED50 duration (KM mice) | 2ED50 recovery time (KM mice) | ED50 (KM mice; Mus musculus, read-out: ED50) | duration and recovery time compared with remimazolam (KM mice) | effective dose compared with remimazolam (KM mice) | ED50 (SD rats; [1]) | 2ED50 duration (SD rats) | 2ED50 recovery time (SD rats) | Quality of recovery (SD rats) | duration and recovery time compared with remimazolam (SD rats) | effective dose compared with remimazolam (SD rats) | Quality of recovery (KM mice) | ED50 (KM mice) | ED50 (SD rats)
CCOC(=O)OC(C)OC(=O)CC[C@@H]1N=C(c2ccccn2)c2cc(Br)c(Br)cc2-n2c(C)cnc21 (stereo partly shown) [Example 16] | 1.57 min | 1.23 min | 15.7 mg/kg | significantly shorter | significantly lower | 3.4 mg/kg | 0.57 min | 0.53 min | + (“+” means <1 min) | significantly shorter | significantly lower | – | – | –
Cc1cnc2n1-c1cc(Br)c(Br)cc1C(c1ccccn1)=N[C@H]2CCC(=O)OC(C)OC(=O)OC(C)C (stereo partly shown) [Example 17] | 4.39 min | 2.53 min | 29.2 mg/kg | – | – | 4.3 mg/kg | 4.39 min | 2.43 min | ++ (“++” means 1-3 min) | – | – | ++ (“++” means 1-3 min) | – | –
COC(=O)C1(OC(=O)CC[C@@H]2N=C(c3ccccn3)c3cc(Br)c(Br)cc3-n3c(C)cnc32)CC1 [Example 18] | 5.09 min | 2.49 min | 30.1 mg/kg | – | – | 4.8 mg/kg | 4.49 min | 2.58 min | +++ (“+++” means 3-5 min) | – | – | +++ (“+++” means 3-5 min) | – | –
CCOC(=O)C1(OC(=O)CC[C@@H]2N=C(c3ccccn3)c3cc(Br)c(Br)cc3-n3c(C)cnc32)CC1 [Example 19] | 6.07 min | 2.09 min | 23.2 mg/kg | – | – | 5.6 mg/kg | 4.07 min | 2.12 min | +++ (“+++” means 3-5 min) | – | – | ++++ (“++++” means 5-10 min) | – | –
COC(=O)COC(=O)CC[C@@H]1N=C(c2ccccn2)c2cc(Br)c(Br)cc2-n2c(C)cnc21 [Example 20] | 4.47 min | 2.43 min | 31.4 mg/kg | – | – | 4.7 mg/kg | 3.47 min | 2.49 min | ++ (“++” means 1-3 min) | – | – | +++ (“+++” means 3-5 min) | – | –
CCOC(=O)COC(=O)CC[C@@H]1N=C(c2ccccn2)c2cc(Br)c(Br)cc2-n2c(C)cnc21 [Example 21] | 3.08 min | 2.01 min | 25.9 mg/kg | – | – | 4.2 mg/kg | 3.08 min | 2.27 min | ++ (“++” means 1-3 min) | – | – | ++ (“++” means 1-3 min) | – | –
COC(=O)C(C)OC(=O)CC[C@@H]1N=C(c2ccccn2)c2cc(Br)c(Br)cc2-n2c(C)cnc21 (stereo partly shown) [Example 22] | 5.58 min | 2.18 min | 30.7 mg/kg | – | – | 4.3 mg/kg | 3.28 min | 2.46 min | ++ (“++” means 1-3 min) | – | – | ++ (“++” means 1-3 min) | – | –
COC(=O)C(C)(C)OC(=O)CC[C@@H]1N=C(c2ccccn2)c2cc(Br)c(Cl)cc2-n2c(C)cnc21 [Example 24] | 1.50 min | 1.02 min | 12 mg/kg | significantly shorter | significantly lower | 6.8 mg/kg | 0.50 min | 0.47 min | + (“+” means <1 min) | significantly shorter | significantly lower | – | – | –
COC(=O)C1(OC(=O)CC[C@@H]2N=C(c3ccccn3)c3cc(Cl)c(C(F)(F)F)cc3-n3c(C)cnc32)CC1 [Example 25] | 5.32 min | 2.19 min | 34 mg/kg | – | – | 4.2 mg/kg | 3.53 min | 2.21 min | ++ (“++” means 1-3 min) | – | – | ++ (“++” means 1-3 min) | – | –
CCOC(=O)C1(OC(=O)CC[C@@H]2N=C(c3ccccn3)c3cc(F)c(C)cc3-n3c(C)cnc32)CC1 [Example 26] | 4.38 min | 2.08 min | 23.7 mg/kg | – | – | 3.7 mg/kg | 3.48 min | 2.04 min | ++ (“++” means 1-3 min) | – | – | +++ (“+++” means 3-5 min) | – | –
COC(=O)COC(=O)CC[C@@H]1N=C(c2ccccn2)c2cc(F)c(OC)cc2-n2c(C)cnc21 [Example 27] | 1.46 min | 1.20 min | 15.3 mg/kg | significantly shorter | significantly lower | 6.3 mg/kg | 1.16 min | 1.05 min | + (“+” means <1 min) | significantly shorter | significantly lower | – | – | –
CCOC(=O)COC(=O)CC[C@@H]1N=C(c2ccccn2)c2cc(Cl)c(OC(F)(F)F)cc2-n2c(C)cnc21 [Example 28] | 0.52 min | 0.58 min | 9.5 mg/kg | significantly shorter | significantly lower | 4.5 mg/kg | 0.58 min | 0.33 min | + (“+” means <1 min) | significantly shorter | significantly lower | – | – | –
COC(=O)C(C)OC(=O)CC[C@@H]1N=C(c2ccccn2)c2c(cc(Cl)c(Cl)c2Cl)-n2c(C)cnc21 (stereo partly shown) [Example 29] | 4.59 min | 2.48 min | 30.8 mg/kg | – | – | 5.8 mg/kg | 3.59 min | 2.44 min | +++ (“+++” means 3-5 min) | – | – | +++ (“+++” means 3-5 min) | – | –
COC(=O)C(C)(C)OC(=O)CC[C@@H]1N=C(c2ccccn2)c2cc(Cl)c(Cl)c(Cl)c2-n2c(C)cnc21 [Example 30] | 4.04 min | 1.59 min | – | – | – | – | 3.01 min | 2.51 min | ++ (“++” means 1-3 min) | – | – | ++ (“++” means 1-3 min) | 30.2 mg/kg | 6.2 mg/kg
Cc1cnc2n1-c1c(Cl)c(Cl)c(Cl)c(Cl)c1C(c1ccccn1)=N[C@H]2CCC(=O)OCOC(=O)OC(C(C)C)C(C)C [Example 31] | 2.13 min | 1.04 min | 17.3 mg/kg | significantly shorter | significantly lower | 2.3 mg/kg | 1.23 min | 1.14 min | + (“+” means <1 min) | significantly shorter | significantly lower | ++ (“++” means 1-3 min) | – | –

From patent US12473291B2 (priority 2019, dated 2025)
